Results published in patent US8354388B2, “Inhibitors of MRP4 for the treatment of vascular disorders” (INSERM (Institut National de la Sante et de la Recherche …, priority 2007, dated 2013).
“Also recorded” adds a separate entry of the source. Where two headings read alike, the source gives them in different places.

Columns and labels:
[1] = tested on: intracellular cAMP in hCASMC; experiment: FRET imaging of cAMP with Epac2-camps in hCASMC; type: cell-based; conditions: Homo sapiens, read-out: EC50, dose providing 50% of maximal cAMP formation
Description: hCASMCs were transfected with scramble siRNA or the siRNA against MRP4 (each at 50 nM) in supplement-free medium over a period of 6 h, before the medium was replaced with supplement-containing medium. 24 h after the transfection, cells were infected with an adenovirus encoding the FRET-based cAMP sensor Epac2-camps. This FRET-based cAMP sensor contains a single cAMP binding domain of Epac2 fused to YFP and CFP fluorescent proteins. Upon addition of forskolin, increasing intra-cellular cAMP concentrations lead to a reversible conformational change of Epac2-camps which results in a decrease of FRET between CFP and YFP, leading to an increase in the CFP/YFP ratio^13. Imaging experiments were performed at 72 h and at room temperature. Cells were maintained in a K^+-Ringer solution containing (in mmol/L): NaCl 121.6, KCl 5.4, MgCl2 1.8; CaCl2 1.8; NaHCO3 4, NaH2PO4 0.8, D-glucose 5, sodium pyruvate 5, HEPES 10, adjusted to pH 7.4. Images were captured every 5 s using the 40× oil immersion objective of a Nikon TE 300 inverted microscope connected to a software-controlled (Metafluor, Molecular Devices, Sunnyvale, Calif., USA) cooled charge coupled (CCD) camera (Sensicam PE; PCO, Kelheim, Germany). […] Average fluorescence intensity was measured in a region of interest comprising the entire cell. […]
All quantitative data are presented as means ±SD. […]

human MRP4 = experiment: MRP4 silencing in hCASMC (quantitative real-time PCR, western blot); type: cell-based; conditions: siRNA 50 nM, 72 hours after transfection
Description: Total RNA was prepared using RNeasy Mini Kit […] and 1 μg was reverse-transcribed using a standard protocol. One tenth of the resulting cDNA was amplified by 35 cycles of 30 s at 94° C., 30 s at Tm (60° C. for MRP4, MRP5 and RPL32) and 30 s at 72° C., followed by a final amplification at 72° C. for 10 min using 1 unit of BIOTAQ DNA Polymerase (Bioline) and 200 pmol each of the following primers: […]
Gene specific primers were used to amplify mRNA by qPCR on a Mx4000 apparatus (Stratagene) using the Qiagen SYBR Green master mix. The specificity of each primer set was monitored by analysis of the dissociation curve. A sample volume of 25 μl was used for each assay, which contained a 1× final concentration of SYBR green PCR master mix, 400 nM gene specific primers, and 5 μl template.
Total cell lysates were prepared according to standard protocol (Upstate Biotechnology). […] Optical Density was quantified using ImageJ software (National Institutes of Health, Bethesda, Md.). […]

[2] = tested on: cyclic nucleotide efflux from hCASMCs; experiment: cAMP and cGMP competitive enzyme immunoassay, intra-/extra-cellular ratio in hCASMC; type: cell-based, human; conditions: hCASMC transfected 72 h
Description: Cyclic GMP and AMP were measured in cell culture supernates and in cell lysates in hCASMC transfected for 72 h either with the scramble siRNA or the MRP4 siRNA by specific competitive enzyme immunoassay as described by the manufacturer (R&D systems).

[3] = tested on: phosphorylated CREB (pCREB); experiment: Phosphorylated CREB western blot in proliferating hCASMC; type: cell-based, human; conditions: p=0.003
Description: Total cell lysates were prepared according to standard protocol (Upstate Biotechnology). Membrane proteins were isolated by scraping the cells in buffer A (5 mmol/L Tris/HCl, 250 mmol/L sucrose, and 0.1 mmol/L ethylenediaminetetraacetic acid supplemented with protease inhibitors cocktail (Sigma). The lysate was centrifuged at 10000 g for 10 min at 4° C. and the supernatant further centrifuged at 100000 g for 1 h at 4° C. The resulting pellet was resuspended in buffer A. Proteins (50 μg) were separated by SDS 12% PAGE, blotted on Hybond-C membrane (Amersham Biosciences) and incubated with various antibodies. The anti-MRP4 antibody was previously described^17. Other antibodies were: anti-MRP5 antibody (1:250; Santa-Cruz Biotechnology), anti-Caveolin1 (1:5000, Abcam), anti-cyclinD1 (1:500, BD Biosciences), anti-PP2B (calcineurin) (1:250; BD Biosciences), anti-CREB (1:1000; Upstate Biotechnology), anti-phosphorylated CREB (1:1000; Upstate Biotechnology). Immunoreactive proteins were visualized using an ECL® (enhanced chemiluminescence) detection system (Amersham Biosciences). Optical Density was quantified using ImageJ software (National Institutes of Health, Bethesda, Md.). […]

[4] = tested on: cAMP responsive element CRE; experiment: CRE-luciferase reporter gene assay in hCASMC; type: cell-based, human; conditions: 5% S, percent of control
Description: Cells were co-transfected with the siRNA (50 nM) and the CRE-luciferase reporter gene plasmid (Stratagene) by electroporation using amaxa® Nucleofector technology according to manufacturer's instructions. After, a period of 6 h, the medium was replaced with supplement containing medium. Cells were grown in the presence of 5% S for 66 h. The results are means for three independent experiments performed in triplicate. The luciferase activity was measured by using “the luciferase assay kit” (Promega). It was expressed as percent of control in relative luciferase units.

hCASMC = experiment: TUNEL staining for apoptosis in hCASMC; type: cell-based, human; conditions: siRNA transfected 72 h
Description: MRP4 or scramble siRNA were transfected in hCASMC for 72 h and the apoptosis was analyzed by TUNEL staining (ApopTag Red, Serologicals Corp). For the positive control, cells were treated with staurosporin (10 μM) for 1 h.

[5] = tested on: human pulmonary artery smooth muscle cells (hPASMC); experiment: BrdU incorporation proliferation assay in hPASMC; type: cell-based
Text: FIG. 10. Inhibition of hPASMC (human pulmonary artery smooth musclulare cells) proliferation with MRP4 siRNA.

[6] = tested on: human coronary artery smooth muscle cells (hCASMC); experiment: BrdU incorporation proliferation assay in hCASMC; conditions: for inhibitory effect on hCASMC proliferation under inhibition of PKA by Ad-PKI: infection with Ad-PKI; for dose-effect on hCASMC proliferation: increasing doses; for hCASMC proliferation, relative increase compared to 0.1% S: without inhibitors 240±15.8%
Description: Cell proliferation was measured 72 hours after plating by BrdU incorporation and expressed as relative increase compared to growth supplement starved (0.1% S) cells. […] (b) Dose-effect of MRP and PDE inhibitors (DIP: Dipyridamole, IBMX, MK571 and NBMPR) on hCASMC proliferation. n=3 experiments in triplicate. * p≦0.05, ** p≦0.01, *** p≦0.001
Human smooth muscle cells were cultured in 96-wells tissue culture plates for 3 days in Smooth Muscle Cell Basal Medium 2 supplemented with 5% S. Medium containing 0.1% S was used for the growth arrest control. Cells were incubated with pharmacological agents or siRNA for 72 h in medium containing 5% S. BrdU was added for the last 16 hours. The cell culture plates were washed, and a colorimetric BrdU cell proliferation assay was performed according to the manufacturer's instructions (Roche).

MRP4 = molecular target: T1, MRP4 (Homo sapiens, UniProt O15439); conditions: literature reference 41; cited from earlier work
T1 sequence (O15439 1-1325): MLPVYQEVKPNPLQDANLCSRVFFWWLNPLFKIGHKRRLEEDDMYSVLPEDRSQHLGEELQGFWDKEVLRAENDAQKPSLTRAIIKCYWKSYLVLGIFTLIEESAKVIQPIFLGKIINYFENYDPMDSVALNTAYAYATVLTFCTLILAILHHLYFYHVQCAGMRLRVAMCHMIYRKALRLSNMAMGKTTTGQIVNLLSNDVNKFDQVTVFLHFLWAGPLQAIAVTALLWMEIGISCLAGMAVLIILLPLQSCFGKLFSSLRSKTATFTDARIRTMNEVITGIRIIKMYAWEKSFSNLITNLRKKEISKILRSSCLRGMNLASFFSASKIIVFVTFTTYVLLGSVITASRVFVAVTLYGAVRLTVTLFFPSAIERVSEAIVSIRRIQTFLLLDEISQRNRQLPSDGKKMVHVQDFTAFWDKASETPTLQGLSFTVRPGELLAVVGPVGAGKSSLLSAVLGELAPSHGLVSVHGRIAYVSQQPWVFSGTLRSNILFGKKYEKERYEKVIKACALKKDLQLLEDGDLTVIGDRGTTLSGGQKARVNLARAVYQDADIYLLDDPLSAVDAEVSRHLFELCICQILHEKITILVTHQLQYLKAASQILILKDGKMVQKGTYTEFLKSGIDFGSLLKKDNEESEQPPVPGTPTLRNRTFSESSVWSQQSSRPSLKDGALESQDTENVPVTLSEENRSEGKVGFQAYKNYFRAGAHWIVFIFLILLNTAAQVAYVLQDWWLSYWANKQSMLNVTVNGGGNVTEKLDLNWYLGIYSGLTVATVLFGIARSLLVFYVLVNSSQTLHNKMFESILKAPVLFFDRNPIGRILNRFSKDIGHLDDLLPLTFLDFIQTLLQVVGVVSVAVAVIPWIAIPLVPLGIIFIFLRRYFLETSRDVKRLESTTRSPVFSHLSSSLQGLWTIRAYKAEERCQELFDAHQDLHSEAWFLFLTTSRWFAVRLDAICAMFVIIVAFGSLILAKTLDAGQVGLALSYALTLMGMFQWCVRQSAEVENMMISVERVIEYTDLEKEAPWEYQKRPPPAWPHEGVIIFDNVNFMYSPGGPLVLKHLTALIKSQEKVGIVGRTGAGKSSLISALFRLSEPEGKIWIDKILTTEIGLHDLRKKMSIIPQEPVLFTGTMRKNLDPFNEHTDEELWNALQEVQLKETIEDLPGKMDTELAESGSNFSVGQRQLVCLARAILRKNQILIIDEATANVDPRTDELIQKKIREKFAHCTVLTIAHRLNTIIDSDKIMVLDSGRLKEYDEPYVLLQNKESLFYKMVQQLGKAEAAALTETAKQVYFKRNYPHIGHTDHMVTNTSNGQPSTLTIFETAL

[7] = 5% S, 72 h, maximal dose used (MK571 37.5 μM, NBMPR 100 μM)

C=C[C@@]1(C)CC(=O)[C@]2(O)[C@@]3(C)[C@@H](O)CCC(C)(C)[C@@H]3[C@H](O)[C@H](OC(C)=O)[C@@]2(C)O1 [forskolin]
EC50 ([1]; MRP4 siRNA transfected hCASMC): 3 ± 0.6 µM | EC50 ([1]; scramble siRNA transfected hCASMC): 13.3 ± 2.2 µM

MRP4 siRNA: siRNA against human MRP4, sense 5′-CAGUGUUCUUACACUUCCUTT-3′ (SEQ ID NO:7), anti-sense 5′-AGGAAGUGUAAGAACACUGTT-3′ (SEQ ID NO:8) (chemistry not given here)
decrease in MRP4 mRNA compared to scramble siRNA (human MRP4): 75±1% | decrease in MRP4 protein level compared to scramble siRNA (human MRP4; western blot): 74±6.8% | cAMP intra-cellular/extra-cellular ratio compared to scramble siRNA [2]: 289±12.5% | cGMP intra-cellular/extra-cellular ratio compared to scramble siRNA [2]: 230±5.5% | increase in level of pCREB compared to scramble siRNA [3]: 329±15% | CRE-luciferase activity compared to scramble siRNA [4]: 553±25% | apoptosis in hCASMC (hCASMC): not associated with apoptosis | hPASMC proliferation compared to scrambled siRNA [5]: significant decrease; also recorded: inhibits | inhibitory effect on hCASMC proliferation under inhibition of PKG by KT5823 ([6]; KT5823, MK571 37.5 μM, NMBPR 100 μM): not by the inhibition of cGMP-dependent protein kinase G | inhibitory effect on hCASMC proliferation under inhibition of PKA by Ad-PKI ([6]; MK571 37.5 μM, NMBPR 100 μM): completely reversed | supplement mix-induced hCASMC proliferation, relative increase compared to 0.1% S ([6]; siRNA 50 nM, 72 h, 5% S, scramble siRNA 313±35%): 183±27%

CN(C)C(=O)CCSC(SCCC(=O)O)c1cccc(/C=C/c2ccc3ccc(Cl)cc3n2)c1 (stereo not drawn) [MK571]
dose-effect on hCASMC proliferation ([6]; 5% S, 72 h): dose-dependent inhibition | hCASMC proliferation, relative increase compared to 0.1% S [6, 7]: 153±11% | inhibitory effect on hCASMC proliferation under inhibition of PKA by Ad-PKI ([6]; MK571 37.5 μM, NMBPR 100 μM): also reversed

CC(C)Cn1c(=O)n(C)c(=O)c2[nH]cnc21 [IBMX]
hCASMC proliferation, relative increase compared to 0.1% S ([6]; 5% S, 72 h, IBMX 100 μM): 170±12% | dose-effect on hCASMC proliferation ([6]; 5% S, 72 h): dose-dependent inhibition

O=[N+]([O-])c1ccc(CSc2ncnc3c2ncn3[C@@H]2O[C@H](CO)[C@@H](O)[C@H]2O)cc1 [NBMPR]
dose-effect on hCASMC proliferation ([6]; 5% S, 72 h): dose-dependent inhibition | hCASMC proliferation, relative increase compared to 0.1% S [6, 7]: 140±15% | inhibitory effect on hCASMC proliferation under inhibition of PKA by Ad-PKI ([6]; MK571 37.5 μM, NMBPR 100 μM): also reversed

CCCc1nn(C)c2c(=O)[nH]c(-c3cc(S(=O)(=O)N4CCN(C)CC4)ccc3OCC)nc12 [Sildenafil]
reported MRP4 inhibition (MRP4): MRP4 inhibitor

OCCN(CCO)c1nc(N2CCCCC2)c2nc(N(CCO)CCO)nc(N3CCCCC3)c2n1 [dipyridamole]
reduction of hCASMC proliferation compared to MK571 or NBMPR ([6]; 5% S, 72 h): no significant difference | dose-effect on hCASMC proliferation ([6]; 5% S, 72 h): dose-dependent inhibition
